From patent US20220175750A1, “SUSTAINED RELEASE FORMULATION FOR LOCAL DELIVERY OF CDK9 INHIBITORS” (The Regents of the University of California, priority 2019, published 2022)

Experiments:
[1] = Microparticle drug loading / loading efficiency; type: physicochemical; settings: for incorporation of inhibitor (adequacy): PLGA
Procedure: (§1) FIG. 6: Flavopiridol was encapsulated at 1% w/v ratio in PLGA microparticles (MPs) synthesized using Purasorb® PDLG 5004A (Corbion) in methylene chloride at 20% w/v ratio and vortexed vigorously for 30 seconds after addition of polyvinyl alcohol (10%) at 2:1 ratio. The solution was then added dropwise to 1% PVA and mixed overnight, with 3× washes next day and lyophilized overnight. […] FIG. 6B: Linear standard curve for different concentrations of flavopiridol in solution of dissolved PLGA in DMSO acquired with Nanodrop 2000 Spectrophotometer at 274 nm. […] FIG. 6D: SEM image of flavopiridol MPs using a Phillips XL30 Microscope.
Preparation of poly(lactic-co-glycolic) acid (PLGA) or polycaprolactone (PCL) particles with CDK9 inhibitors was performed using a single emulsion-solvent evaporation technique. Briefly, 500 mg of PLGA or PCL was dissolved in 2.5 mL of 2% v/v dimethylsulfoxide in methylene chloride (for PLGA) or chloroform (for PCL). […] The solutions were vortexed at full speed (30 seconds for PLGA or 45 seconds for PCL) to form microparticles. The microparticle suspensions were transferred to 150 mL of 1% poly(vinyl alcohol), and stirred for 24 hours. The particles were pelleted, washed with water, lyophilized and stored at −20° C. for further use. Size distribution was measured using an AccuSizer model 770 optical particle sizer (Particle Sizing Systems).
For example, SNS-032 has a 30.7% loading efficiency, such that of the 2 g of starting SNS-032, about 0.61 g was encapsulated in the PLGA microparticles. Lower amounts of drug encapsulation result in less inhibitor per microparticle. If the loading efficiency decreases below a certain threshold, the amount of microparticles required to deliver a therapeutic dose of the CDK9 inhibitor can become prohibitive (for cost, efficiency, injection volume, and potentially, an adverse reaction of the treated subject to the administered microparticles).

[2] = In vitro release of CDK9 inhibitor from microparticles in PBS-Tween; type: physicochemical; settings: PLGA
Procedure: as §1
Flavopiridol release from the particles was quantified over 42 days in PBS-Tween®, by absorbance at 247 nm.
(B) Release: The release characteristics of the microparticles prepared above were determined using the procedure set forth in Example 2.

[3] = as above; type: physicochemical; settings: PCL
NFκB target genes = experiment: Gene expression in primary human chondrocytes treated with IL-1β with or without flavopiridol; type: cell-based
Excerpt: CDK9 inhibition effectively suppresses the transcription of primary inflammatory response genes.
CDK9 inhibitors exert effects on the inflammatory response pathway.

ACL-rupture in mice = experiment: Primary response gene mRNA expression after ACL-rupture knee injury, systemic flavopiridol; type: in vivo

Row | Molecule | incorporation of inhibitor (adequacy) [1] | incorporation of inhibitor (adequacy) ([1]; listed as dinaciclib) | % loading efficiency ([1]; PCL microparticles) | % loading efficiency ([1]; PLGA microparticles) | amount encapsulated in the PLGA microparticles ([1]; of the 2 g of starting SNS-032) | % release ([2]; Day 1) | % release ([2]; Day 3) | % release ([2]; Day 5) | % release ([3]; Day 3) | % release ([3]; Day 7) | average magnitude of repression (of maximum induction) of IL-1β-induced genes (NFκB target genes; 300 nM flavopiridol, 10 ng/mL IL-1β, 5 hours) | number of IL-1β-induced genes repressed by flavopiridol co-treatment (NFκB target genes; of 67 genes induced by IL-1β (84 NFκB target genes tested)) | repeated versus single administration (IL-1β, IL-6 gene expression) (ACL-rupture in mice; 0, 1, or 2 administrations) | mRNA expression of pro-inflammatory cytokines IL-1β and IL-6 at the injured site (ACL-rupture in mice; 4-8 hours post-injury, intraperitoneal injection) | window after injury during which flavopiridol is effective at preventing transcription of primary response genes (ACL-rupture in mice; delay before administration) | house-keeping gene 18S rRNA, Collagen Type 2 and aggrecan expression (ACL-rupture in mice; mouse, in vivo)
1 | CCc1cnn2c(NCc3ccc[n+]([O-])c3)cc(N3CCCC[C@H]3CCO)nc12 [Dinaciclib] | not encapsulated effectively | failed to incorporate an adequate amount | – | – | – | – | – | – | – | – | – | – | – | – | – | –
2 | CC(C)(C)c1cnc(CSc2cnc(NC(=O)C3CCNCC3)s2)o1 [SNS-032] | – | – | 0.3% | 30.7% | about 0.61 g | 4.0% | 5.4% | 7.0% | 0% | 0% | – | – | – | – | – | –
3 | CN1CC[C@H](c2c(O)cc(O)c3c(=O)cc(-c4ccccc4Cl)oc23)[C@H](O)C1 [flavopiridol, 2-(2-chlorophenyl)-5,7-dihydroxy-8-[(3S,4R)-3-hydroxy-1-methyl-4-piperidinyl]-4-chromenone] | – | – | – | – | – | – | – | – | – | – | > 86% | 59 | more effective than a single administration | effectively and selectively suppressed | at least 3 hours | not affected
4 | Voruciclib | – | – | 1.1% | 59.9% | – | 3.4% | 4.8% | 6.5% | 0.36% | 0.43% | – | – | – | – | – | –
